Test results as given in patent publication US20070259909A1, “Novel Difluoroethoxy-Substituted Hydroxy-6-Phenylphenanthridines and Their Use as Pde4 Inhibitors” (ALTANA PHARMA AG, priority 2004, published 2007).

Biological target: T1, PDE4B2 (Homo sapiens, UniProt Q07343)
T1 construct: made in house; host or cells: SF21 insect cells (baculovirus; virus generated in SF9 cells)
Experiment: PDE4B2 [3H]cAMP SPA enzyme assay (inhibition of PDE4 activity)
Assay type: biochemical
Conditions: recombinant PDE4B2 (GB no. M97515) expressed in SF21 insect cells; cAMP substrate; 37° C., 15 min; read-out: -log IC50(mol/l), Inhibition of the PDE4 activity (converted)
Procedure: The PDE4B2 (GB no. M97515) was a gift of Prof. M. Conti (Stanford University, USA). It was amplified from the original plasmid (pCMV5) via PCR with primers Rb9 (5′-[…]-3′) and Rb10 (5′-[…]-3′) and cloned into the pCR-Bac vector (Invitrogen, Groningen, NL).
The recombinant baculovirus was prepared by means of homologous recombination in SF9 insect cells. The expression plasmid was cotransfected with Bac-N-Blue (Invitrogen, Groningen, NL) or Baculo-Gold DNA (Pharmingen, Hamburg) using a standard protocol (Pharmingen, Hamburg). Wt virus-free recombinant virus supernatant was selected using plaque assay methods. After that, high-titre virus supernatant was prepared by amplifying 3 times. […]
The SF21 insect cells were resuspended, at a concentration of approx. 10^7 cells/ml, in ice-cold (° C.) homogenization buffer (20 mM Tris, pH 8.2, containing the following additions: 140 mM NaCl, 3.8 mM KCl, 1 mM EGTA, 1 mM MgCl2, 10 mM P-mercaptoethanol, 2 mM benzamidine, 0.4 mM Pefablock, 10 μM leupeptin, […] pepstatin A, 5 μM trypsin inhibitor) and disrupted by ultrasonication. […] The protein content was determined by the Bradford method (BioRad, Munich) using BSA as the standard. […]
Representative inhibitory values determined for the compounds according to the invention follow from the following table A, in which the numbers of the compounds correspond to the numbers of the Examples.

T1 sequence (Q07343 1-564 isoform Q07343-2): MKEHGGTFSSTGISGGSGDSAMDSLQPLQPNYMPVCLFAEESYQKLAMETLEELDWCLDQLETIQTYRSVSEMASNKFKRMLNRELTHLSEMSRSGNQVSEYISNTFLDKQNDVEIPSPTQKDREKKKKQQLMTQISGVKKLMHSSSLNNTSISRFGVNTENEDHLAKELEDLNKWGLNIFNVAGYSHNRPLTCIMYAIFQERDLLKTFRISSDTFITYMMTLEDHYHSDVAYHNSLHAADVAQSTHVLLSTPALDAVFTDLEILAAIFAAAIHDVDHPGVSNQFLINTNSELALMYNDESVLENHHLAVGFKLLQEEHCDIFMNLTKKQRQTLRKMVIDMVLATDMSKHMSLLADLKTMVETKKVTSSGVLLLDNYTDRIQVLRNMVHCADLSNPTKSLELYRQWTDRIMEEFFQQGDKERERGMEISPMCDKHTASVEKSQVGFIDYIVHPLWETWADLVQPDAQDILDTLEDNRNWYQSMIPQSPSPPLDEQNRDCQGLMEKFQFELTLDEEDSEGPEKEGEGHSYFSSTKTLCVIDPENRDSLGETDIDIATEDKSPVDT

SMILES	IC50 [nM]
COc1cc2c(cc1OCC(F)F)C1CC(O)CCC1N=C2c1ccc(F)cc1 (racemic) [Compound 1, (2RS,4aRS,10bRS)-9-(2,2-Difluoroethoxy)-6(4fluorophenyl)-8-methoxy-(1,2,3,4,4a,10b)-hexahydrophenanthridin-2-ol]	0.708
COc1cc2c(cc1OCC(F)F)[C@H]1C[C@H](O)CC[C@H]1N=C2c1ccc(C#N)cc1 (racemic) [Compound 3, 4-[(2RS,4aRS,10bRS)-9-(2,2-Difluoro-ethoxy)-2-hydroxy-8-methoxy-1,2,3,4,4a,10b-hexahydro-phenanthridin-6-yl]-benzonitrile]	1.82
